Data: PubChem BioAssay (NCI)
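GI50 is the concentration that inhibits growth by half. Definition used: TGI = concentration required for complete inhibition of growth.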

Legend:
Experiment in all cases: NCI anticancer screen, dose series, 384-well format
[1] = tested on: T-47D breast
[2] = tested on: OVCAR-8 ovarian
[3] = tested on: A549 NSCLC
[4] = tested on: TK-10 renal
[5] = tested on: OVCAR-5 ovarian
[6] = tested on: RXF 393 renal
[7] = tested on: MDA-MB-231 breast
[8] = tested on: SF-539 CNS
[9] = tested on: SW-620 colon
[10] = tested on: MDA-MB-435 melanoma
[11] = tested on: HS 578T breast
[12] = tested on: HCT-116 colon
[13] = tested on: HT29 colon
[14] = tested on: MALME-3M melanoma
[15] = tested on: SNB-19 CNS
[16] = tested on: EKVX NSCLC
[17] = tested on: SNB-75 CNS
[18] = tested on: NCI-H460 NSCLC
[19] = tested on: HL-60(TB) leukemia
[20] = tested on: M14 melanoma
[21] = tested on: HOP-62 NSCLC
[22] = tested on: BT-549 breast
[23] = tested on: UO-31 renal
[24] = tested on: UACC-257 melanoma
[25] = tested on: SR leukemia
[26] = tested on: SK-MEL-5 melanoma
[27] = tested on: HOP-92 NSCLC
[28] = tested on: CCRF-CEM leukemia
[29] = tested on: NCI-H226 lung
[30] = tested on: K-562 leukemia
[31] = tested on: HCT-15 colon
[32] = tested on: ACHN renal
[33] = tested on: SF-268 CNS
[34] = tested on: HCC-2998 colon
[35] = tested on: SK-OV-3 ovarian
[36] = tested on: LOX IMVI melanoma
[37] = tested on: NCI-H522 lung
[38] = tested on: NCI-H322M lung
[39] = tested on: DU-145 prostate
[40] = tested on: NCI-H23 lung
[41] = tested on: OVCAR-3 ovarian
[42] = tested on: RPMI-8226 leukemia
[43] = tested on: MCF7 breast
[44] = tested on: PC-3 prostate
[45] = tested on: CAKI-1 renal
[46] = tested on: A498 renal
[47] = tested on: KM12 colon
[48] = tested on: U251 glioblastoma
[49] = tested on: SN12C renal
[50] = tested on: MDA-MB-468 breast
[51] = tested on: 786-0 renal
[52] = tested on: IGROV1 ovarian
[53] = tested on: COLO 205 colon
[54] = tested on: MOLT-4 leukemia
[55] = tested on: OVCAR-4 ovarian
[56] = tested on: SF-295 CNS
[57] = tested on: SK-MEL-28 melanoma
[58] = tested on: NCI/ADR-RES ovarian

Question: `O=C(Nc1cccc2cccnc12)c1ccc(N2C(=O)[C@@H]3[C@H](C2=O)[C@@H]2C=C[C@H]3C2)cc1` was tested. Which GI50 [1] did it give?
Answer: 13 µM

Question: What about the TGI [1] of the same molecule?
Answer: 27.1 µM

Question: What about the GI50 [2] of the same molecule?
Answer: 27.8 µM

Question: And the TGI [2]?
Answer: 94.6 µM

Question: What about the GI50 [3] of the same molecule?
Answer: 32.2 µM

Question: And the TGI [3]?
Answer: > 100 µM

Question: And the GI50 [4]?
Answer: 28.7 µM

Question: What about the TGI [4] of the same molecule?
Answer: > 100 µM

Question: And the GI50 [5]?
Answer: 56.8 µM

Question: What about the TGI [5] of the same molecule?
Answer: > 100 µM

Question: And the GI50 [6]?
Answer: 0.907 µM

Question: And the TGI [6]?
Answer: 24.6 µM

Question: And the GI50 [7]?
Answer: 36.3 µM

Question: And the TGI [7]?
Answer: > 100 µM

Question: What about the GI50 [8] of the same molecule?
Answer: 49.1 µM

Question: And the TGI [8]?
Answer: > 100 µM

Question: What about the GI50 [9] of the same molecule?
Answer: 44.9 µM

Question: And the TGI [9]?
Answer: > 100 µM

Question: What about the GI50 [10] of the same molecule?
Answer: 46.3 µM

Question: And the TGI [10]?
Answer: > 100 µM

Question: And the GI50 [11]?
Answer: 29.3 µM

Question: What about the TGI [11] of the same molecule?
Answer: 93.7 µM

Question: And the GI50 [12]?
Answer: 38.3 µM

Question: And the TGI [12]?
Answer: > 100 µM

Question: And the GI50 [13]?
Answer: 14.4 µM

Question: And the TGI [13]?
Answer: 29.8 µM

Question: What about the GI50 [14] of the same molecule?
Answer: 27.3 µM

Question: And the TGI [14]?
Answer: 88 µM

Question: What about the GI50 [15] of the same molecule?
Answer: 27.2 µM

Question: What about the TGI [15] of the same molecule?
Answer: > 100 µM

Question: What about the GI50 [16] of the same molecule?
Answer: 25.5 µM

Question: And the TGI [16]?
Answer: > 100 µM

Question: What about the GI50 [17] of the same molecule?
Answer: 30 µM

Question: And the TGI [17]?
Answer: 98.5 µM

Question: And the GI50 [18]?
Answer: 20.5 µM

Question: And the TGI [18]?
Answer: 43.5 µM

Question: What about the GI50 [19] of the same molecule?
Answer: 12.3 µM

Question: And the TGI [19]?
Answer: 24.9 µM

Question: And the GI50 [20]?
Answer: 43.5 µM

Question: What about the TGI [20] of the same molecule?
Answer: > 100 µM

Question: And the GI50 [21]?
Answer: 21.7 µM

Question: And the TGI [21]?
Answer: 74.7 µM

Question: What about the GI50 [22] of the same molecule?
Answer: 12.6 µM

Question: And the TGI [22]?
Answer: 30.5 µM

Question: And the GI50 [23]?
Answer: 20.1 µM

Question: And the TGI [23]?
Answer: > 100 µM

Question: And the GI50 [24]?
Answer: 36.2 µM

Question: And the TGI [24]?
Answer: > 100 µM

Question: What about the GI50 [25] of the same molecule?
Answer: 13.5 µM

Question: What about the TGI [25] of the same molecule?
Answer: 32.9 µM

Question: And the GI50 [26]?
Answer: 18.1 µM

Question: And the TGI [26]?
Answer: 32.7 µM

Question: And the GI50 [27]?
Answer: 43.7 µM

Question: And the TGI [27]?
Answer: > 100 µM

Question: What about the GI50 [28] of the same molecule?
Answer: 16.8 µM

Question: And the TGI [28]?
Answer: 42.3 µM

Question: What about the GI50 [29] of the same molecule?
Answer: 18 µM

Question: What about the TGI [29] of the same molecule?
Answer: 50 µM

Question: What about the GI50 [30] of the same molecule?
Answer: 11.6 µM

Question: And the TGI [30]?
Answer: 25.9 µM

Question: What about the GI50 [31] of the same molecule?
Answer: 26.1 µM

Question: What about the TGI [31] of the same molecule?
Answer: 98.2 µM

Question: What about the GI50 [32] of the same molecule?
Answer: 45.1 µM

Question: What about the TGI [32] of the same molecule?
Answer: > 100 µM

Question: And the GI50 [33]?
Answer: 41.2 µM

Question: And the TGI [33]?
Answer: > 100 µM

Question: What about the GI50 [34] of the same molecule?
Answer: 20.1 µM

Question: And the TGI [34]?
Answer: 41.6 µM

Question: What about the GI50 [35] of the same molecule?
Answer: 57.2 µM

Question: What about the TGI [35] of the same molecule?
Answer: > 100 µM

Question: And the GI50 [36]?
Answer: 32.5 µM

Question: What about the TGI [36] of the same molecule?
Answer: 89.6 µM

Question: And the GI50 [37]?
Answer: 16.4 µM

Question: And the TGI [37]?
Answer: 32.8 µM

Question: What about the GI50 [38] of the same molecule?
Answer: 42 µM

Question: And the TGI [38]?
Answer: > 100 µM

Question: What about the GI50 [39] of the same molecule?
Answer: 26.2 µM

Question: And the TGI [39]?
Answer: > 100 µM

Question: What about the GI50 [40] of the same molecule?
Answer: 16.9 µM

Question: What about the TGI [40] of the same molecule?
Answer: 42.6 µM

Question: And the GI50 [41]?
Answer: 25.3 µM

Question: What about the TGI [41] of the same molecule?
Answer: > 100 µM

Question: And the GI50 [42]?
Answer: 21 µM

Question: What about the TGI [42] of the same molecule?
Answer: 36.5 µM

Question: And the GI50 [43]?
Answer: 22.9 µM

Question: And the TGI [43]?
Answer: > 100 µM

Question: What about the GI50 [44] of the same molecule?
Answer: 26 µM

Question: What about the TGI [44] of the same molecule?
Answer: 70.4 µM

Question: And the GI50 [45]?
Answer: 28.4 µM

Question: What about the TGI [45] of the same molecule?
Answer: > 100 µM

Question: And the GI50 [46]?
Answer: 25.9 µM

Question: What about the TGI [46] of the same molecule?
Answer: > 100 µM

Question: What about the GI50 [47] of the same molecule?
Answer: 32.3 µM

Question: What about the TGI [47] of the same molecule?
Answer: > 100 µM

Question: And the GI50 [48]?
Answer: 19.4 µM

Question: What about the TGI [48] of the same molecule?
Answer: > 100 µM

Question: And the GI50 [49]?
Answer: 47.8 µM

Question: What about the TGI [49] of the same molecule?
Answer: > 100 µM

Question: And the GI50 [50]?
Answer: 3.84 µM

Question: What about the TGI [50] of the same molecule?
Answer: 23.6 µM

Question: What about the GI50 [51] of the same molecule?
Answer: 21 µM

Question: And the TGI [51]?
Answer: 59.9 µM

Question: What about the GI50 [52] of the same molecule?
Answer: 32.5 µM

Question: What about the TGI [52] of the same molecule?
Answer: > 100 µM

Question: And the GI50 [53]?
Answer: 37.6 µM

Question: What about the TGI [53] of the same molecule?
Answer: > 100 µM

Question: And the GI50 [54]?
Answer: 16 µM

Question: And the TGI [54]?
Answer: 29.8 µM

Question: And the GI50 [55]?
Answer: 21.6 µM

Question: What about the TGI [55] of the same molecule?
Answer: > 100 µM

Question: What about the GI50 [56] of the same molecule?
Answer: 17.7 µM

Question: What about the TGI [56] of the same molecule?
Answer: 57.4 µM

Question: What about the GI50 [57] of the same molecule?
Answer: 54.5 µM

Question: What about the TGI [57] of the same molecule?
Answer: > 100 µM

Question: What about the GI50 [58] of the same molecule?
Answer: 12 µM

Question: What about the TGI [58] of the same molecule?
Answer: 26.7 µM
